In experiment [1] the test system is HL-60 (human myeloid leukemia) cells. The experiment in a line: MTT cytotoxicity assay, HL-60. In kind it is cell-based. Particulars: HL-60, MTT, 48 h, read-out: IC50 against HL-60. As to the method: (§1) Compounds 1–10 were evaluated for their cytotoxic activities against five human cancer cell lines, HL-60 (human myeloid leukemia), SMMC-7721 (hepatocellular carcinoma), A549 (lung cancer), MCF-7 (breast cancer), and SW480 (colon cancer), and one human normal cell line BEAS-2B (human bronchial epithelial) by the MTT method. DDP (cis-platin) and taxol were used as positive controls.
(§2) Five human cancer cell lines, human myeloid leukemia HL-60, hepatocellular carcinoma SMMC-7721, lung cancer A549, breast cancer MCF-7, and colon cancer SW480 cells, together with one human normal cell line BEAS-2B (human bronchial epithelial), were assayed. Cells were cultured in RPMI-1640 or in DMEM medium (Hyclone, USA), supplemented with 10% fetal bovine serum (Hyclone, USA) in 5% CO2 at 37 °C. The antiproliferative assay was performed according to the MTT (3-(4,5-dimethylthiazol-2-yl)-2,5-diphenyl tetrazolium bromide) method in 96-well microplates, as reported previously, with slight modification. Briefly, 100 μL of adherent cells was seeded into each well of 96-well cell culture plates and allowed to adhere for 12 h before addition of test compounds, while suspended cells were seeded just before the addition of the drug with initial density of 1 × 10^5 cells/mL. Each cancer cell line was exposed to the tested compound at concentrations of 0.0625, 0.32, 1.6, 8, and 40 μM in triplicates for 48 h. Wells with DMSO were used as negative controls, and DDP (cis-platin, Sigma, USA) and taxol were used as a positive control. After compound treatment, cell viability was detected by a Bio-Rad 680 at λ = 595 nm and a cell growth curve was graphed. IC50 values were calculated by Reed and Muench’s method.

The subject of experiment [2] is SMMC-7721 (hepatocellular carcinoma) cells. The experiment in a line: MTT cytotoxicity assay, SMMC-7721. The conditions noted are these: SMMC-7721, MTT, 48 h, read-out: IC50 against SMMC-7721. In kind it is cell-based, human. As to the method: as §1, §2
Experiment [3] has as its system A549 (lung cancer) cells. In words: MTT cytotoxicity assay, A549. In kind it is cell-based, human. Particulars: A-549, MTT, 48 h, read-out: IC50 against A-549. On the procedure:
as §1, §2

Experiment [4] has as its system MCF-7 (breast cancer) cells. In words: MTT cytotoxicity assay, MCF-7. In kind it is cell-based, human. The conditions noted are these: MCF-7, MTT, 48 h, read-out: IC50 against MCF-7. On the procedure:
as §1, §2

Experiment [5] deals with SW480 (colon cancer) cells. In words: MTT cytotoxicity assay, SW480. In kind it is cell-based, human. The conditions noted are these: 48 h, read-out: IC50 against SW480. As to the method:
as §1, §2

The test system of experiment [6] is BEAS-2B (human bronchial epithelial) cells. The experiment in a line: MTT cytotoxicity assay, BEAS-2B normal cell line. The conditions noted are these: BEAS-2B human normal cell line, 48 h, read-out: IC50 against BEAS-2B. In kind it is cell-based. On the procedure:
as §1, §2

Molecules are shown by their SMILES. Where two headings read alike, the source gives them in different places.

In the case of `C=C(C)[C@]12C[C@@H](C)[C@@]34OC5(CCCCCCC[C@@H](C)[C@H]6[C@H](C)[C@H](O)[C@@](O)([C@H](O)[C@@]7(COC(=O)/C=C/c8ccccc8)O[C@H]7[C@H]3[C@H]1O5)[C@@H]64)O2` [Compound 1, wikstroelide Q], the half-maximal inhibitory concentration (IC50) in experiment [1] (Homo sapiens) was 26.4 µM; in experiment [2] (Homo sapiens), more than 40 µM; in experiment [3] (Homo sapiens, A549) it was more than 40 µM; in experiment [4] (Homo sapiens, MCF7), more than 40 µM; in experiment [5] (Homo sapiens), more than 40 µM; in experiment [6] it was more than 40 µM.

Turning to `C=C(C)[C@]12C[C@@H](C)[C@@]34OC5(CCCCCCC[C@H](C)[C@H]6[C@H](C)[C@H](OC(=O)c7ccccc7)[C@@](O)([C@H](O)[C@@]7(CO)O[C@H]7[C@H]3[C@H]1O5)[C@@H]64)O2` [Compound 2, pimelea factors P2], the IC50 stood at 13.8 µM in experiment [1] (Homo sapiens); 17.5 µM in experiment [2] (Homo sapiens); 12.1 µM in experiment [3] (Homo sapiens, A549); 12.8 µM in experiment [4] (Homo sapiens, MCF7); 15.9 µM in experiment [5] (Homo sapiens); 17.4 µM in experiment [6].

Take `C=C(C)[C@@]12C[C@@H](C)[C@@]34OC5(CCCCCCC[C@@H](C)[C@H]6[C@H](C)[C@H](OC(=O)c7ccccc7)[C@@](O)([C@H](O)[C@@]7(CO)O[C@H]7[C@H]3[C@H]1O5)[C@@H]64)O2` [Compound 3, pimelea factor P3]: the half-maximal inhibitory concentration (IC50) in experiment [1] (Homo sapiens) turned out to be 13.3 µM; in experiment [2] (Homo sapiens), 14.9 µM; in experiment [3] (Homo sapiens, A549) it was 11.1 µM; in experiment [4] (Homo sapiens, MCF7), 14 µM; in experiment [5] (Homo sapiens), 14.4 µM; in experiment [6], 15.4 µM.

Take `CC(=O)O[C@@]12C[C@@H](C)[C@@]3(O)[C@@H](C=C(CO)C[C@]4(O)C(=O)C(C)=C[C@@H]34)[C@@H]1C2(C)C` [Compound 4, prostratin]: the 50% inhibitory concentration (IC50) is 15.6 µM in experiment [1] (Homo sapiens); 18.1 µM in experiment [2] (Homo sapiens); 12.6 µM in experiment [3] (Homo sapiens, A549); 16 µM in experiment [4] (Homo sapiens, MCF7); 13.3 µM in experiment [5] (Homo sapiens); 17.4 µM in experiment [6].

Regarding `CCCCC/C=C/C=C/C(=O)O[C@@H]1[C@@H](C)[C@@]2(O)[C@@H](C=C(CO)C[C@]3(O)C(=O)C(C)=C[C@@H]23)[C@@H]2C(C)(C)[C@]12OC(C)=O` [Compound 5, prostratin Q], the IC50 in experiment [1] (Homo sapiens) was determined as 15.8 µM; in experiment [2] (Homo sapiens), 15.1 µM; in experiment [3] (Homo sapiens, A549), 15.8 µM; in experiment [4] (Homo sapiens, MCF7), 15 µM; in experiment [5] (Homo sapiens), 14.8 µM; in experiment [6], 16.6 µM.

For the molecule `COc1cc([C@H]2OC[C@H]3[C@@H]2CO[C@H]3c2ccc(O)c(OC)c2)ccc1O` [Compound 6, (+)-epipioresinol], the IC50 in experiment [1] (Homo sapiens) is more than 40 µM; in experiment [2] (Homo sapiens) it was more than 40 µM; in experiment [3] (Homo sapiens, A549), more than 40 µM; in experiment [4] (Homo sapiens, MCF7) it was more than 40 µM; in experiment [5] (Homo sapiens), more than 40 µM; in experiment [6], more than 40 µM.

As for `COc1cc([C@H]2c3cc(O)c(OC)cc3C[C@@H](CO)[C@@H]2CO)ccc1O` [Compound 7, (+)-isolariciresinol], the half-maximal inhibitory concentration (IC50) in experiment [1] (Homo sapiens) was more than 40 µM; in experiment [2] (Homo sapiens), more than 40 µM; in experiment [3] (Homo sapiens, A549) it was more than 40 µM; in experiment [4] (Homo sapiens, MCF7) it was more than 40 µM; in experiment [5] (Homo sapiens), more than 40 µM; in experiment [6], more than 40 µM.

As for `COc1cc(C[C@@H]2CO[C@@H](c3ccc(O)c(OC)c3)[C@@H]2CO)ccc1O` [Compound 8, (−)-lariciresinol], the IC50 in experiment [1] (Homo sapiens) was more than 40 µM; in experiment [2] (Homo sapiens) it was more than 40 µM; in experiment [3] (Homo sapiens, A549), more than 40 µM; in experiment [4] (Homo sapiens, MCF7), more than 40 µM; in experiment [5] (Homo sapiens) it was more than 40 µM; in experiment [6] it was more than 40 µM.

As to `O=C(c1ccc2c(c1)OCO2)[C@H]1CO[C@H](c2ccc3c(c2)OCO3)[C@H]1CO` [Compound 9, (+)-epi-sesaminone], the IC50 in experiment [1] (Homo sapiens) was more than 40 µM; in experiment [2] (Homo sapiens) it was more than 40 µM; in experiment [3] (Homo sapiens, A549), more than 40 µM; in experiment [4] (Homo sapiens, MCF7), more than 40 µM; in experiment [5] (Homo sapiens) it was more than 40 µM; in experiment [6], more than 40 µM.

Regarding `COc1ccc(C[C@@H]2COC(=O)[C@H]2Cc2ccc(OC)c(O)c2)cc1O` [Compound 10, prestegane B], the IC50 in experiment [1] (Homo sapiens) was more than 40 µM; in experiment [2] (Homo sapiens), more than 40 µM; in experiment [3] (Homo sapiens, A549) it was more than 40 µM; in experiment [4] (Homo sapiens, MCF7), more than 40 µM; in experiment [5] (Homo sapiens), more than 40 µM; in experiment [6] it was more than 40 µM.

`N.N.[Cl][Pt][Cl]` [DDP ( cis-platin), cis-platin, reference compound]: the IC50 in experiment [1] was 1.25 µM; in experiment [2], 16.2 µM; in experiment [3], 14.1 µM; in experiment [4], 16.9 µM; in experiment [5] it was 18.1 µM; in experiment [6] it was 8.61 µM.

Take `CC(=O)O[C@H]1C(=O)[C@@]2(C)[C@H]([C@H](OC(=O)c3ccccc3)[C@]3(O)C[C@H](OC(=O)[C@H](O)[C@@H](NC(=O)c4ccccc4)c4ccccc4)C(C)=C1C3(C)C)[C@]1(OC(C)=O)CO[C@@H]1C[C@@H]2O` [Taxol, taxol, reference compound]: the IC50 is less than 0.008 µM in experiment [1] (Homo sapiens); less than 0.008 µM in experiment [2] (Homo sapiens); less than 0.008 µM in experiment [3] (Homo sapiens, A549); less than 0.008 µM in experiment [4] (Homo sapiens, MCF7); less than 0.008 µM in experiment [5] (Homo sapiens); 5 µM in experiment [6].

For the origin of these results see article PMC6268896, “Two New Diterpenoids from the Buds of Wikstroemia chamaedaphne” (Molecules, 2012).
